Data on one compound can be found in publication PMC5218480 (PLoS ONE, 2017).

The assay concerns MV-4-11 cells. Description: Gene expression microarray analysis (Affymetrix PrimeView) and GSEA. Format: cell-based, human. Also noted: RFU PODN (11730768_x_at) / Fold change /veh PODN (11730768_x_at) / RFU LINC00158 (11744669_a_at) / Fold change /veh LINC00158 (11744669_a_at) / RFU DUSP10 (11751237_a_at) / Fold change /veh DUSP10 (11751237_a_at) / RFU ID3 (11757404_x_at) / Fold change /veh ID3 (11757404_x_at) / RFU PLEKHG5 (11737974_s_at) / Fold change /veh PLEKHG5 (11737974_s_at) / RFU LRRC4B (11730491_at) / Fold change /veh LRRC4B (11730491_at) / RFU GIMAP4 (11747438_a_at) / Fold change /veh GIMAP4 (11747438_a_at) / RFU KRT8 (11758183_x_at) / Fold change /veh KRT8 (11758183_x_at) / RFU CNN1 (11734310_a_at) / Fold change /veh CNN1 (11734310_a_at) / RFU VPS37D (11726825_at) / Fold change /veh VPS37D (11726825_at) / RFU C10orf10 (11716522_x_at) / Fold change /veh C10orf10 (11716522_x_at) / RFU KIR2DL2 /// KIR2DL4 /// KIR2DL5A /// KIR2DL5B /// KIR2DS1 /// KIR2DS2 /// KIR2DS3 /// KIR2DS4 /// KIR3DL3 /// KIR3DL3 /// KIR3DS1 (11738374_at) / Fold change /veh KIR2DL2 /// KIR2DL4 /// KIR2DL5A /// KIR2DL5B /// KIR2DS1 /// KIR2DS2 /// KIR2DS3 /// KIR2DS4 /// KIR3DL3 /// KIR3DL3 /// KIR3DS1 (11738374_at) / RFU C1QL1 (11718748_at) / Fold change /veh C1QL1 (11718748_at) / RFU TMPRSS4 (11747572_a_at) / Fold change /veh TMPRSS4 (11747572_a_at) / RFU HAMP (11756126_x_at) / Fold change /veh HAMP (11756126_x_at) / RFU RNFT2 (11725882_a_at) / Fold change /veh RNFT2 (11725882_a_at) / RFU NR4A2 (11747474_a_at) / Fold change /veh NR4A2 (11747474_a_at) / RFU ABCC12 (11746883_a_at) / Fold change /veh ABCC12 (11746883_a_at) / RFU TMEM136 (11760407_x_at) / Fold change /veh TMEM136 (11760407_x_at) / RFU CLDN22 /// WWC2 (11732394_at) / Fold change /veh CLDN22 /// WWC2 (11732394_at) / RFU HLA-DPB1 (11760878_x_at) / Fold change /veh HLA-DPB1 (11760878_x_at) / RFU SPINT1 (11716480_a_at) / Fold change /veh SPINT1 (11716480_a_at) / RFU GAP43 (11754022_s_at) / Fold change /veh GAP43 (11754022_s_at) / RFU A4GNT (11735810_at) / Fold change /veh A4GNT (11735810_at) / RFU PRB3 (11715151_x_at) / Fold change /veh PRB3 (11715151_x_at) / RFU TUBB4B (11761932_at) / Fold change /veh TUBB4B (11761932_at) / RFU CAPN14 (11732068_a_at) / Fold change /veh CAPN14 (11732068_a_at) / RFU TMCC2 (11721928_a_at) / Fold change /veh TMCC2 (11721928_a_at) / RFU IRGQ (11745062_a_at) / Fold change /veh IRGQ (11745062_a_at) / RFU FAM174B (11720279_a_at) / Fold change /veh FAM174B (11720279_a_at) / RFU TMPRSS4 (11748680_a_at) / Fold change /veh TMPRSS4 (11748680_a_at) / RFU FAM212B (11763350_a_at) / Fold change /veh FAM212B (11763350_a_at) / RFU PLEKHG5 (11743358_a_at) / Fold change /veh PLEKHG5 (11743358_a_at) / RFU ZSCAN30 (11745921_a_at) / Fold change /veh ZSCAN30 (11745921_a_at) / RFU CMKLR1 (11741424_a_at) / Fold change /veh CMKLR1 (11741424_a_at) / RFU LOC101060620 /// MAPK8IP1 (11723275_at) / Fold change /veh LOC101060620 /// MAPK8IP1 (11723275_at) / RFU SPTSSB (11747773_x_at) / Fold change /veh SPTSSB (11747773_x_at) / RFU PRSS12 (11739890_at) / Fold change /veh PRSS12 (11739890_at) / RFU BIN1 (11741810_x_at) / Fold change /veh BIN1 (11741810_x_at) / RFU WNT11 (11732464_a_at) / Fold change /veh WNT11 (11732464_a_at) / RFU C10orf10 (11716521_a_at) / Fold change /veh C10orf10 (11716521_a_at) / RFU C5orf56 (11738089_at) / Fold change /veh C5orf56 (11738089_at) / RFU CYB561 (11721691_x_at) / Fold change /veh CYB561 (11721691_x_at) / RFU ANKRD19P (11752326_a_at) / Fold change /veh ANKRD19P (11752326_a_at) / RFU OR2T12 /// OR2T33 /// OR2T8 (11738714_s_at) / Fold change /veh OR2T12 /// OR2T33 /// OR2T8 (11738714_s_at) / RFU VCAN (11748164_a_at) / Fold change /veh VCAN (11748164_a_at) / RFU JSRP1 (11732532_at) / Fold change /veh JSRP1 (11732532_at) / RFU KRTAP10-11 (11738290_x_at) / Fold change /veh KRTAP10-11 (11738290_x_at) / RFU MYO3A (11730013_a_at) / Fold change /veh MYO3A (11730013_a_at) / RFU EBF3 (11725865_a_at) / Fold change /veh EBF3 (11725865_a_at) / RFU CAMK2N1 (11719241_x_at) / Fold change /veh CAMK2N1 (11719241_x_at) / RFU C5orf56 (11738088_a_at) / Fold change /veh C5orf56 (11738088_a_at) / RFU OLFML3 (11715873_a_at) / Fold change /veh OLFML3 (11715873_a_at) / RFU LOC100653217 /// NTM (11731650_a_at) / Fold change /veh LOC100653217 /// NTM (11731650_a_at) / RFU MAPK11 (11762145_a_at) / Fold change /veh MAPK11 (11762145_a_at) / RFU FIZ1 (11724087_x_at) / Fold change /veh FIZ1 (11724087_x_at) / RFU OASL (11726364_x_at) / Fold change /veh OASL (11726364_x_at) / RFU SOX15 (11748057_x_at) / Fold change /veh SOX15 (11748057_x_at) / RFU CD79A (11719716_a_at) / Fold change /veh CD79A (11719716_a_at) / RFU HIST1H1D (11736915_at) / Fold change /veh HIST1H1D (11736915_at) / RFU CASKIN2 (11723855_a_at) / Fold change /veh CASKIN2 (11723855_a_at) / RFU LOC730098 (11760151_x_at) / Fold change /veh LOC730098 (11760151_x_at) / RFU OR4N2 (11742367_at) / Fold change /veh OR4N2 (11742367_at) / RFU PRRT2 (11749266_a_at) / Fold change /veh PRRT2 (11749266_a_at) / RFU SNX32 (11753110_a_at) / Fold change /veh SNX32 (11753110_a_at) / RFU CDHR5 (11726645_a_at) / Fold change /veh CDHR5 (11726645_a_at) / RFU RCAN1 (11760418_a_at) / Fold change /veh RCAN1 (11760418_a_at) / RFU FAM167A (11723789_a_at) / Fold change /veh FAM167A (11723789_a_at) / RFU FAM26E (11764081_at) / Fold change /veh FAM26E (11764081_at) / RFU ISYNA1 (11749810_s_at) / Fold change /veh ISYNA1 (11749810_s_at) / RFU ACY1 (11761880_at) / Fold change /veh ACY1 (11761880_at) / RFU 11764098_at / Fold change /veh 11764098_at / RFU SAMD14 (11745864_x_at) / Fold change /veh SAMD14 (11745864_x_at) / RFU NPB (11741838_a_at) / Fold change /veh NPB (11741838_a_at) / RFU TMPRSS6 (11731388_a_at) / Fold change /veh TMPRSS6 (11731388_a_at) / RFU KRTAP10-2 (11738614_at) / Fold change /veh KRTAP10-2 (11738614_at) / RFU ARHGAP8 /// PRR5-ARHGAP8 (11727945_x_at) / Fold change /veh ARHGAP8 /// PRR5-ARHGAP8 (11727945_x_at) / RFU KRTAP5-7 /// NADSYN1 (11734609_at) / Fold change /veh KRTAP5-7 /// NADSYN1 (11734609_at) / RFU RASL12 (11751679_a_at) / Fold change /veh RASL12 (11751679_a_at) / RFU CDKN2B (11736163_a_at) / Fold change /veh CDKN2B (11736163_a_at) / RFU PRF1 (11729649_at) / Fold change /veh PRF1 (11729649_at) / RFU, ZNF638 /// ZNF638-IT1 / Fold change vs veh, ZNF638 /// ZNF638-IT1 / RFU, PANK3 / Fold change vs veh, PANK3 / RFU, SH3YL1 / Fold change vs veh, SH3YL1 / RFU, ZEB2 / Fold change vs veh, ZEB2 / RFU, NRIP1 / Fold change vs veh, NRIP1 / RFU, PTTG1IP / Fold change vs veh, PTTG1IP / RFU, CAPN2 / Fold change vs veh, CAPN2 / RFU, MED14 / Fold change vs veh, MED14 / RFU, SNORA58 / Fold change vs veh, SNORA58 / RFU, C1orf63 / Fold change vs veh, C1orf63 / RFU, LRRFIP1 / Fold change vs veh, LRRFIP1 / RFU, NDUFAF7 / Fold change vs veh, NDUFAF7 / RFU, SLC12A2 / Fold change vs veh, SLC12A2 / RFU, IBTK / Fold change vs veh, IBTK / RFU, ESF1 / Fold change vs veh, ESF1 / Fold change vs veh, TMEM50B / RFU, TAOK1 / Fold change vs veh, TAOK1 / RFU, ACBD3 / Fold change vs veh, ACBD3 / RFU, TMA16 / Fold change vs veh, TMA16 / RFU, RWDD3 / Fold change vs veh, RWDD3 / RFU, BCAT1 / Fold change vs veh, BCAT1 / RFU, EDEM3 / Fold change vs veh, EDEM3 / RFU, TMEM33 / Fold change vs veh, TMEM33 / RFU, WDR75 / Fold change vs veh, WDR75 / RFU, AHCTF1 / Fold change vs veh, AHCTF1 / RFU, TFRC / Fold change vs veh, TFRC / RFU, ZDHHC17 / Fold change vs veh, ZDHHC17 / RFU, NOM1 / Fold change vs veh, NOM1 / RFU, ARL8B / Fold change vs veh, ARL8B / RFU, ZBTB11 / Fold change vs veh, ZBTB11 / RFU, TAMM41 / Fold change vs veh, TAMM41 / RFU, KIAA1704 /// LOC100996395 / Fold change vs veh, KIAA1704 /// LOC100996395 / RFU, ING1 / Fold change vs veh, ING1 / RFU, TRMT61B / Fold change vs veh, TRMT61B / RFU, FUBP3 / Fold change vs veh, FUBP3 / RFU, TP53 / Fold change vs veh, TP53 / RFU, TNKS2 / Fold change vs veh, TNKS2 / RFU, ZFP14 / Fold change vs veh, ZFP14 / RFU, ACTR2 / Fold change vs veh, ACTR2 / RFU, PPP3R1 / Fold change vs veh, PPP3R1 / RFU, PIK3R1 / Fold change vs veh, PIK3R1 / RFU, HNRNPA1 / Fold change vs veh, HNRNPA1 / RFU, RNF170 / Fold change vs veh, RNF170 / RFU, ZNF28 / Fold change vs veh, ZNF28 / RFU, RNGTT / Fold change vs veh, RNGTT / RFU, OGT / Fold change vs veh, OGT / RFU, BRD1 / Fold change vs veh, BRD1 / RFU, MARS / Fold change vs veh, MARS / RFU, ZNF655 / Fold change vs veh, ZNF655 / RFU, FAHD1 / Fold change vs veh, FAHD1 / RFU, BDP1 / Fold change vs veh, BDP1 / RFU, LRRCC1 / Fold change vs veh, LRRCC1 / RFU, ARID1A / Fold change vs veh, ARID1A / RFU, ZNF146 / Fold change vs veh, ZNF146 / RFU, ZNF330 / Fold change vs veh, ZNF330 / RFU, GPN3 / Fold change vs veh, GPN3 / RFU, C9orf123 / Fold change vs veh, C9orf123 / RFU, N4BP2L2 / Fold change vs veh, N4BP2L2 / RFU, ARFIP1 / Fold change vs veh, ARFIP1 / RFU, FAM179B / Fold change vs veh, FAM179B / RFU, BCL10 / Fold change vs veh, BCL10 / RFU, UHRF1BP1L / Fold change vs veh, UHRF1BP1L / RFU, BET1 / Fold change vs veh, BET1 / RFU, CNOT2 / Fold change vs veh, CNOT2 / RFU, ZNF268 / Fold change vs veh, ZNF268 / Fold change vs veh, ZNF507 / RFU, DGCR2 / Fold change vs veh, DGCR2 / RFU, WDSUB1 / Fold change vs veh, WDSUB1 / Fold change vs veh, HSP90B1 /// MIR3652 / RFU, ADSS / Fold change vs veh, ADSS / RFU, GK / Fold change vs veh, GK / RFU, ZNF148 / Fold change vs veh, ZNF148 / RFU, TAF9 / Fold change vs veh, TAF9 / RFU, SLC1A5 / Fold change vs veh, SLC1A5 / RFU, SLMO2 / Fold change vs veh, SLMO2 / RFU, ABCC4 / Fold change vs veh, ABCC4 / RFU, LOC101060439 /// RAP1B / Fold change vs veh, LOC101060439 /// RAP1B / RFU, RFX7 / Fold change vs veh, RFX7 / RFU, GTPBP10 / Fold change vs veh, GTPBP10 / RFU, CNEP1R1 / Fold change vs veh, CNEP1R1 / RFU, BIVM-ERCC5 /// ERCC5 / Fold change vs veh, BIVM-ERCC5 /// ERCC5 / RFU, ILF3 / Fold change vs veh, ILF3 / RFU 11762660_at / Fold change /veh 11762660_at / RFU VCAN (11757783_s_at) / Fold change /veh VCAN (11757783_s_at) / RFU DDX43 (11728927_at) / Fold change /veh DDX43 (11728927_at) / RFU KRT8 (11758188_x_at) / Fold change /veh KRT8 (11758188_x_at) / RFU NKD1 (11759106_at) / Fold change /veh NKD1 (11759106_at) / RFU SRD5A1 (11742802_a_at) / Fold change /veh SRD5A1 (11742802_a_at) / RFU TPSAB1 /// TPSB2 (11721975_s_at) / Fold change /veh TPSAB1 /// TPSB2 (11721975_s_at) / RFU GSTM3 (11746129_a_at) / Fold change /veh GSTM3 (11746129_a_at) / RFU IL23R (11737362_x_at) / Fold change /veh IL23R (11737362_x_at) / RFU TMEM51 (11727254_a_at) / Fold change /veh TMEM51 (11727254_a_at) / RFU PIWIL2 (11732686_x_at) / Fold change /veh PIWIL2 (11732686_x_at) / RFU ORM1 (11744905_x_at) / Fold change /veh ORM1 (11744905_x_at) / RFU CCDC152 (11743942_at) / Fold change /veh CCDC152 (11743942_at) / RFU ECM1 (11717891_a_at) / Fold change /veh ECM1 (11717891_a_at) / RFU IL23R (11748794_a_at) / Fold change /veh IL23R (11748794_a_at) / RFU TNFAIP8L3 (11732012_x_at) / Fold change /veh TNFAIP8L3 (11732012_x_at) / RFU MBOAT4 (11741988_at) / Fold change /veh MBOAT4 (11741988_at) / RFU 11764193_at / Fold change /veh 11764193_at / RFU TMEM53 (11763286_at) / Fold change /veh TMEM53 (11763286_at) / RFU MAGEB2 (11727129_at) / Fold change /veh MAGEB2 (11727129_at) / RFU TMEM200A (11744735_a_at) / Fold change /veh TMEM200A (11744735_a_at) / RFU CCDC152 (11751479_a_at) / Fold change /veh CCDC152 (11751479_a_at) / RFU FAM211A (11726209_a_at) / Fold change /veh FAM211A (11726209_a_at) / RFU RGS16 (11746705_a_at) / Fold change /veh RGS16 (11746705_a_at) / RFU VCAN (11755009_s_at) / Fold change /veh VCAN (11755009_s_at) / RFU RHOB (11743442_s_at) / Fold change /veh RHOB (11743442_s_at) / RFU RGS16 (11720943_a_at) / Fold change /veh RGS16 (11720943_a_at) / RFU RGS16 (11720944_at) / Fold change /veh RGS16 (11720944_at) / RFU, VPS4B / Fold change vs veh, VPS4B / RFU, CREB1 / Fold change vs veh, CREB1 / RFU, DNAJC13 / Fold change vs veh, DNAJC13 / RFU, GNAQ / Fold change vs veh, GNAQ / RFU, CDK5R1 / Fold change vs veh, CDK5R1 / RFU, ZRANB3 / Fold change vs veh, ZRANB3 / RFU, CUL4A / Fold change vs veh, CUL4A / RFU, CCNY / Fold change vs veh, CCNY / RFU, UFL1 / Fold change vs veh, UFL1 / RFU, COG3 / Fold change vs veh, COG3 / RFU, DIAPH2 / Fold change vs veh, DIAPH2 / RFU, SKA2 / Fold change vs veh, SKA2 / RFU, AFF3 / Fold change vs veh, AFF3 / RFU, LMF1 / Fold change vs veh, LMF1 / RFU, IPO11 / Fold change vs veh, IPO11 / RFU, DFFB / Fold change vs veh, DFFB / RFU, FOXP1 / Fold change vs veh, FOXP1 / RFU, CARD8 / Fold change vs veh, CARD8 / RFU, STRN3 / Fold change vs veh, STRN3 / RFU, ADK / Fold change vs veh, ADK / RFU, RASSF2 / Fold change vs veh, RASSF2 / RFU, WIPF1 / Fold change vs veh, WIPF1 / RFU, LARP1B / Fold change vs veh, LARP1B / RFU, RASA1 / Fold change vs veh, RASA1 / RFU, RB1 / Fold change vs veh, RB1 / RFU, PPFIA1 / Fold change vs veh, PPFIA1 / RFU, MAT2A / Fold change vs veh, MAT2A / RFU, CCT5 / Fold change vs veh, CCT5 / RFU, WDR92 / Fold change vs veh, WDR92 / RFU, CUX1 / Fold change vs veh, CUX1 / RFU, TTC7A / Fold change vs veh, TTC7A / RFU, TMEM135 / Fold change vs veh, TMEM135 / RFU, DEPTOR / Fold change vs veh, DEPTOR / RFU, CPM / Fold change vs veh, CPM / RFU, DNAJB6 / Fold change vs veh, DNAJB6 / RFU, CACNA2D3 / Fold change vs veh, CACNA2D3 / RFU, DTX4 / Fold change vs veh, DTX4 / RFU, TFCP2 / Fold change vs veh, TFCP2 / RFU, GMCL1 /// GMCL1P1 / Fold change vs veh, GMCL1 /// GMCL1P1 / RFU, AEBP2 / Fold change vs veh, AEBP2 / RFU, SNHG1 /// SNORD22 /// SNORD25 /// SNORD26 /// SNORD27 /// SNORD28 /// SNORD29 /// SNORD31 / Fold change vs veh, SNHG1 /// SNORD22 /// SNORD25 /// SNORD26 /// SNORD27 /// SNORD28 /// SNORD29 /// SNORD31 / Fold change (Aza/veh), C12orf56 (ProbeSet 11735607_a_at) / Fold change (ACY-1035/veh), C12orf56 (ProbeSet 11735607_a_at) / Fold change (Aza/veh), FGFR1OP (ProbeSet 11751329_s_at) / Fold change (ACY-1035/veh), FGFR1OP (ProbeSet 11751329_s_at) / Fold change (Aza/veh), VPS36 (ProbeSet 11739960_a_at) / Fold change (ACY-1035/veh), VPS36 (ProbeSet 11739960_a_at) / RFU SYPL1 (11715823_x_at) / Fold change /veh SYPL1 (11715823_x_at) / RFU IGFBP7 (11715501_s_at) / Fold change /veh IGFBP7 (11715501_s_at) / RFU REEP3 (11722064_at) / Fold change /veh REEP3 (11722064_at) / RFU IGLL1 (11728026_x_at) / Fold change /veh IGLL1 (11728026_x_at): dose or concentration left out as unconfirmed. The conditions noted are these: ProbeSet 11725901_x_at; LIST B.

Take `Nc1ccc(-c2cccs2)cc1NC(=O)c1ccc2c(c1)cc(C1CC1)n2CCN1CCOCC1` [ACY-1035]: the “Fold change vs veh, RWDD3” value was 0.90.
